Drawing on ChEMBL document CHEMBL1212921, “Design, synthesis, enzyme-inhibitory activity, and effect on human cancer cells of a novel series of jumonji domain-containing protein 2 histone demethylase inhibitors” (J Med Chem, 2010), this text covers IC50, Activity and GI50 for 18 compounds.

One experiment addresses Egl nine homolog 1 (Homo sapiens, UniProt Q9GZT9). Briefly: Inhibition of human recombinant PHD2 expressed in Sf9 cells by time-resolved fluorescence assay.
The target of a further experiment is Prolyl hydroxylase EGLN2 (Homo sapiens, UniProt Q96KS0). Description: Inhibition of human recombinant PHD1 expressed in Sf9 cells by time-resolved fluorescence assay.
Chain of Prolyl hydroxylase EGLN2 (Q96KS0 whole entry): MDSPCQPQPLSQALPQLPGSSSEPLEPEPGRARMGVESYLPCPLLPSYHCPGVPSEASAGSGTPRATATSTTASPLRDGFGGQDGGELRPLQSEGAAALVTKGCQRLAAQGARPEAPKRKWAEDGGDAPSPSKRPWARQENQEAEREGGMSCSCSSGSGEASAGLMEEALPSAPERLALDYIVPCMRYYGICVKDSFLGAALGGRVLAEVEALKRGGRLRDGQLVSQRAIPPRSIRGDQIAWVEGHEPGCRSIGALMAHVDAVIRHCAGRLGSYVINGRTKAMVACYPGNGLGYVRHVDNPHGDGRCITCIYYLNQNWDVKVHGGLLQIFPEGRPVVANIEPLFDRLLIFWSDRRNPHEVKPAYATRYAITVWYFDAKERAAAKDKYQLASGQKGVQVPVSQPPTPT
Experiment [1] deals with T1, Lysine-specific demethylase 4A (Homo sapiens, UniProt O75164).
T1 sequence (O75164 whole entry): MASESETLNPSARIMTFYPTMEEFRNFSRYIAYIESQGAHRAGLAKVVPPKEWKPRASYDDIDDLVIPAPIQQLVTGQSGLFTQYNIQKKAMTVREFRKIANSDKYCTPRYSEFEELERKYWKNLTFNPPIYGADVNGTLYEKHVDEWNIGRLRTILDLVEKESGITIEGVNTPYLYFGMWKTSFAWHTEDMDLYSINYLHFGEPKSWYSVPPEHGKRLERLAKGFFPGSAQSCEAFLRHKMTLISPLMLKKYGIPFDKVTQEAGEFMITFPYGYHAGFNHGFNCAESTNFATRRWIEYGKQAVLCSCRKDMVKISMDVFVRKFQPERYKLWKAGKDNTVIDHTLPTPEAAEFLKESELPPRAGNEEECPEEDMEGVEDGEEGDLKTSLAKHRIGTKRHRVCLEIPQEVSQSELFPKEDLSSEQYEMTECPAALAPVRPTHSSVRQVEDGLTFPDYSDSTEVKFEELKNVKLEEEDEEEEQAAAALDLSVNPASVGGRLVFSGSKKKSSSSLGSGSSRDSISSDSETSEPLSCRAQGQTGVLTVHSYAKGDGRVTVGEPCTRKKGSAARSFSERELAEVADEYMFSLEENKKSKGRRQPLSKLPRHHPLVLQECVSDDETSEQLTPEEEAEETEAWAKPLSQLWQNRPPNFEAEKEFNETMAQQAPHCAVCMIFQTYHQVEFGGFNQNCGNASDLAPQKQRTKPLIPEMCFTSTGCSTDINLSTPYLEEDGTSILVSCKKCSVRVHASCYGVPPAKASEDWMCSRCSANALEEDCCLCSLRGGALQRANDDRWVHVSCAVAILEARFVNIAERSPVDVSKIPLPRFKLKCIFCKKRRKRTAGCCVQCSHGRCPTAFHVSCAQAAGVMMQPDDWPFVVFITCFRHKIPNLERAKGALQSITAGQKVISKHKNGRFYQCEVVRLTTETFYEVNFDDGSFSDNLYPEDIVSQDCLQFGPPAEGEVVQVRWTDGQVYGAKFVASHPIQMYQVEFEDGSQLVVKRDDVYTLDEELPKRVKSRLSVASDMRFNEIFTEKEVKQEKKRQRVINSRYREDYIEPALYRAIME
Description: Inhibition of recombinant His-tagged JMJD2A expressed in Escherichia coli Rosetta 2 (DE3) pLysS cells by formaldehyde dehydrogenase-coupled assay.

The test system of experiment [2] is LNCaP. Briefly: Cytotoxicity against human LNCAP cells expressing JMJD2C at 30 uM after 72 hrs by Alamar blue assay. In kind it is functional, cell-based. On the technique in general: Alamar Blue is a resazurin reagent that responds to reducing activity.
Experiment [3] deals with LNCaP. Description: Cytotoxicity against human LNCAP cells expressing JMJD2C at 100 uM after 72 hrs by Alamar blue assay. The experiment is classed as functional, cell-based.
Experiment [4] deals with T2, Lysine-specific demethylase 4C (Homo sapiens, UniProt Q9H3R0).
T2 sequence (Q9H3R0 whole entry): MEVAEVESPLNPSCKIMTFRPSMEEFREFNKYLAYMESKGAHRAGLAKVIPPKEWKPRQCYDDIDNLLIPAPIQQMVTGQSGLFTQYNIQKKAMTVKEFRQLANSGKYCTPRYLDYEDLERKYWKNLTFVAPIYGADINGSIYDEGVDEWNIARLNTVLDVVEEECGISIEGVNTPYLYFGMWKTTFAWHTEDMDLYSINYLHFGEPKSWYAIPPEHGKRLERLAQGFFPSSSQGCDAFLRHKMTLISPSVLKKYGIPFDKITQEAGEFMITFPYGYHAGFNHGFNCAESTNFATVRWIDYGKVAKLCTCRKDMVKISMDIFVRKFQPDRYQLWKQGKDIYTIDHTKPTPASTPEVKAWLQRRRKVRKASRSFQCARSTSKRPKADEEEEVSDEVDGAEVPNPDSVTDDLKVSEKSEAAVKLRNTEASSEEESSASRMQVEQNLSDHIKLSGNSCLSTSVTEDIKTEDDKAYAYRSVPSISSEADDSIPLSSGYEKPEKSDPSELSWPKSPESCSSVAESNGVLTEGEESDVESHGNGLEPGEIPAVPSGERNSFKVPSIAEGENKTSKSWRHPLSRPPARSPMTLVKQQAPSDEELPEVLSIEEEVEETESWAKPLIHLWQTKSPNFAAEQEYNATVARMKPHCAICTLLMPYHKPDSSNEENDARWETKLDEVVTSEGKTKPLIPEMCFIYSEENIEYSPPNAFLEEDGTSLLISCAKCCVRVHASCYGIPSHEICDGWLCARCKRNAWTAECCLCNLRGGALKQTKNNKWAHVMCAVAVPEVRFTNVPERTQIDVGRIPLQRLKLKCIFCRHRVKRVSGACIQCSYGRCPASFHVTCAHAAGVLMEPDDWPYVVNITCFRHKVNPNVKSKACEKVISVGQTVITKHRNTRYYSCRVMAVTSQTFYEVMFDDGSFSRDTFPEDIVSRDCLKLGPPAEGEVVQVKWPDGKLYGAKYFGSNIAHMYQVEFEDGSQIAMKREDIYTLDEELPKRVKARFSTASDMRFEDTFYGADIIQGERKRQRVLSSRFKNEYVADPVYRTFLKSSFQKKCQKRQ
Briefly: Inhibition of recombinant His-tagged JMJD2C expressed in Escherichia coli Rosetta 2 (DE3) pLysS cells by formaldehyde dehydrogenase-coupled assay.

Experiment [5] deals with LNCaP. Description: Cytotoxicity against human LNCAP cells expressing JMJD2C after 72 hrs by Alamar blue assay. In kind it is functional.
Another experiment has as its system KYSE-150. Briefly: Cytotoxicity against human KYSE-150 cells at 30 uM after 72 hrs by Alamar blue assay. In kind it is functional, cell-based.
Another experiment concerns HCT-116. Description: Cytotoxicity against human HCT116 cells at 30 uM after 72 hrs by Alamar blue assay. In kind it is functional, cell-based.
Another experiment concerns PC-3. Description: Cytotoxicity against human PC3 cells at 30 uM after 72 hrs by Alamar blue assay. The experiment is classed as functional, cell-based.

Molecules are shown by their SMILES. The source made the active and inactive calls. The rule behind the calls is not given here.

Chain of Egl nine homolog 1 (Q9GZT9 whole entry): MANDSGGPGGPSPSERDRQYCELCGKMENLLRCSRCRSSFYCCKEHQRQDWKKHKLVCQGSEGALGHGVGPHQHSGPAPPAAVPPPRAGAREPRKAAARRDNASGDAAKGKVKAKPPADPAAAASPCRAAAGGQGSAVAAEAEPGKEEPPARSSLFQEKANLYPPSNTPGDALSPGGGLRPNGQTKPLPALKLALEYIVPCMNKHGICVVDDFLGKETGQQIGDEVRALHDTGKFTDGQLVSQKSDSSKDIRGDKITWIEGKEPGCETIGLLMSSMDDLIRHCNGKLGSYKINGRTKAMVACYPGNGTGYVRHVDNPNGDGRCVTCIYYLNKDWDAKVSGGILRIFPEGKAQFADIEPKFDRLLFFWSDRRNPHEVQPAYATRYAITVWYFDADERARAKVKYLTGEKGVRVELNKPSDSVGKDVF

As usually defined, the IC50 is the concentration needed to halve the response being measured. Turning to `CN(C)CCCCCCCCC(=O)N(O)CCC(=O)O`, the IC50 on Egl nine homolog 1 is over 100 µM; on Prolyl hydroxylase EGLN2 (read-out: IC50), over 100 µM; in experiment [1], 3 µM; in experiment [4], 1 µM. The result with LNCaP [2] and in the experiment with LNCaP [3] was inactive.

In the case of `CCCCN(C)CCCCCCCCC(=O)N(O)CCC(=O)O`, the results for the IC50 (on Egl nine homolog 1; at Prolyl hydroxylase EGLN2 (read-out: IC50); in experiment [1]) were over 100 µM, over 100 µM and 3.2 µM, respectively.

Regarding `CNCCCCCCCCC(=O)N(O)CCC(=O)O`, the results for the IC50 in experiment [1] and in [4] were 4.4 µM and 1.7 µM, respectively.

`CN(C)CCCCCCCCCCCC(=O)N(O)CCC(=O)O`: the IC50 in experiment [1] is 22 µM; in experiment [4] it was 8.8 µM.

For the compound `CC(C)CCCCCC(=O)N(O)CCC(=O)O`, the IC50 in [1] was 120 µM; in experiment [4] it was 74 µM.

Regarding `CN(C)CCCCCCCCCC(=O)N(O)CCC(=O)O`, the IC50 on Egl nine homolog 1 was over 100 µM; at Prolyl hydroxylase EGLN2 (read-out: IC50), over 100 µM; in [1] it was 5.5 µM; in experiment [4] it was 1.6 µM.

With `CC(=O)N(O)CCC(=O)O`, the IC50 was over 100 µM on Egl nine homolog 1, over 100 µM on Prolyl hydroxylase EGLN2 (read-out: IC50), 14 µM in experiment [1] and 34 µM in experiment [4].

Consider `O=C(O)c1ccnc(C(=O)O)c1`, for which the IC50 on Prolyl hydroxylase EGLN2 is 1.5 µM.

On to `CN(C)CCCCCCCC(=O)N(O)CCC(=O)O`, for which the IC50 on Egl nine homolog 1 was over 100 µM; on Prolyl hydroxylase EGLN2 (read-out: IC50), over 100 µM; in experiment [1], 6 µM; in experiment [4] it was 1.5 µM.

The term GI50 denotes the concentration at which growth is held to half of that of the control. Low values mean more potent growth inhibition, high ones less potent growth inhibition. With `N[C@@H]1C[C@H]1c1ccc(OCC[C@H](NC(=O)c2ccccc2)C(=O)NCc2ccccc2)cc1`, the GI50 in the experiment on LNCaP [5] stood at 36 µM.

As for `COC(=O)CCN(O)C(=O)CCCCCCCCN(C)C`, the outcome in the experiment on KYSE-150, in the experiment on HCT-116, with PC-3, in the experiment on LNCaP [2] and in the experiment with LNCaP [3] was inactive.

As to `CN(C)CCCCCC(=O)N(O)CCC(=O)O`, the IC50 in [1] worked out at 17 µM; in [4], 10 µM.

Take `CN(CCCCCCCCC(=O)N(O)CCC(=O)O)Cc1ccccc1`: the IC50 worked out at 2 µM in [1] and 1.3 µM in experiment [4].

For `CN(C)CCCCCCCCN(O)C(=O)CCC(=O)O`, the IC50 on Egl nine homolog 1 was over 100 µM; on Prolyl hydroxylase EGLN2 (read-out: IC50) it was over 100 µM; in experiment [1], 8.1 µM; in experiment [4], 2 µM.

Turning to `CN(C)CCCCCCCCCCC(=O)N(O)CCC(=O)O`, the IC50 in experiment [1] was found to be 11 µM; in experiment [4], 5.2 µM.

On to `CN(C)CCCCCCC(=O)N(O)CCC(=O)O`, for which the figures for the IC50 in experiment [1] and in [4] were 8.7 µM and 2.7 µM, respectively.

In the case of `O=C(O)CNC(=O)C(=O)O` [N-OXALYLGLYCINE], the IC50 on Prolyl hydroxylase EGLN2 (read-out: IC50) was found to be 2.1 µM; in [1], 250 µM; in experiment [4], 500 µM.

Regarding `COC(=O)c1ccnc(C(=O)OC)c1`, the result in the experiment with HCT-116, in the experiment on PC-3, in the experiment with LNCaP [2] and in the experiment on LNCaP [3] was inactive.
